Source: patent US10849916B2 (priority 2014, dated 2020)

Assay: Water (moisture) content by Karl Fischer method
Format: physicochemical
Conditions: for Water content tested by KF method: isolated impurity fraction from preparative HPLC
Procedure: 1. Water content: Water content was estimated by karl fischer (KF) method wherein suitable quantity of methanol was taken in the flask and titrated with karl fischer reagent to neutralize the methanol. Then weighed quantity of the sample is added to the flask and titrated to the end point.

Structure (SMILES)	Water content tested by KF method [% by weight]	Water content in the vials (after drying under vacuum in lyophilizer)	Water content of the input cyclophosphamide monohydrate (input drug substance, before drying)
CCOP(=O)(O)OCCCN1CCNCC1 [0.21 RRT, ethyl (3-(piperazin-1-yl)propyl) hydrogen phosphate]	2.69	–	–
O=P1(N(CCCl)CCCl)NCCCO1 (stereo not shown) [Cyclophosphamide, 2-[bis(2-chloroethyl)amino]tetrahydro-2H-1,3,2-oxazaphosphorine 2-oxide monohydrate]	–	approximately 1%	*Water content of the input cyclophosphamide monohydrate is 6.25% w/w.
CCOCCN(CCCl)P1(=O)NCCCO1 (stereo not shown) [0.75 RRT, 2-((2-chloroethyl)(2-ethoxyethyl)amino)-1,3,2-oxazaphosphinane 2-oxide]	2.71	–	–
